We go through twelve compounds from paper PMC6594577, “Identifying small molecule probes of ENTPD5 through high throughput screening” (PLoS ONE, 2019).

As usually defined, the inhibition is the relative decrease from the control value, in per cent. In general, IC50 refers to the concentration that inhibits the measured activity by half. A high value points to a need for much substance. One may read the EC50 as the concentration at which the effect is half-maximal. Low values mean higher potency in that assay, high ones lower potency in that assay. A word on the Km: it is the concentration of substrate that gives half-maximal velocity. As a reminder, the kcat is the maximal rate divided by the concentration of active sites.

The target in one assay is T1, I.ENTPD5 (Homo sapiens, UniProt O75356).
T1 construct: His8 (C); made in house; host or cells: Hi-5 insect cells (baculovirus amplified in SF9)
T1 sequence (O75356 44-428): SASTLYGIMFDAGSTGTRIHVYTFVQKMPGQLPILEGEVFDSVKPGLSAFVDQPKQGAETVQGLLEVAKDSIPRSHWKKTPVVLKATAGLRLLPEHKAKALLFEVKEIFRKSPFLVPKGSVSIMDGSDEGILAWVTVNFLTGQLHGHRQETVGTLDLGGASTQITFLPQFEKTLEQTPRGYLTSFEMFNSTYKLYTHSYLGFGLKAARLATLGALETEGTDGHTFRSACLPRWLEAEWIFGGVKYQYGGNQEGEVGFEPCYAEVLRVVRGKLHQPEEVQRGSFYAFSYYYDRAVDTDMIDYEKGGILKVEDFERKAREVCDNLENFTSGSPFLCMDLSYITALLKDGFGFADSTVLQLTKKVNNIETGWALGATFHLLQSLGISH
Put plainly: Malachite Green (MG) assay for free phosphate. The class given is biochemical. The procedure:
Malachite Green (MG) assay for free phosphate was used to directly test ENTPD5 activity. Standard curves for each preparation of malachite green were generated using known amounts of free phosphate. Reactions were carried out at room temperature in 1-mL cuvettes and OD 630 nm measurements were performed on a Nanodrop 2000c. ENTPD5 assays were initiated by adding UDP (100 μM final concentration) to a cuvette containing 800 μL of ENTPD5 (10 ng) in reaction buffer (250 mM NaCl, 5 mM MgCl2, 25 mM Tris-HCl pH 8.5). After 5 minutes, the reaction was quenched with 200 μL of MG buffer (13.1% (v/v) Concentrated sulfuric acid, 2.64 mM malachite green, 1.4% (w/v) ammonium molybdate, and 0.17% (v/v) Tween 20) and mixed by pipet. The OD 630 nm was measured after an additional 5-minute incubation. IC50 values were calculated by GraphPad Prism 6 using sigmoidal interpolation model with 95% confidence intervals. Using I.ENTPD5, the five hits compounds were validated in the malachite green (MG) assay, which directly measures free phosphate, a product of ENTPD5 activity.

Assay [1] has as its target T2, B.ENTPD5 (human ENTPD5 44–428) (Homo sapiens, UniProt O75356).
T2 construct: bacterial codon-optimized human ENTPD5 44–428 (B.ENTPD5); His8 (C); made in house; host or cells: E. coli C41(DE3)
T2 sequence (O75356 44-428): T1 sequence (O75356 44-428)
Put plainly: coupled enzyme (ENTPD5/UMPK/luciferase) HTS assay. Particulars: for inhibition at 20 µM: HTS, 20 μM compound, duplicate, read-out: Percent ENTPD5 inhibition; for IC50: compounds at 5, 10, 20 and 40 μM, coupled enzyme HTS assay. In kind it is biochemical. The procedure:
Stocks of purified B.ENTPD5, UMPK, and luciferase were diluted to 0.4 mg/mL, 1.2 mg/mL, 4.5 mg/mL, respectively, in 250 mM NaCl, 25 mM Tris-HCl pH 8.5, 5 mM MgCl2, 0.1 mg/mL BSA, and 5 mM DTT and flash frozen. To prepare enzyme mix solution for HTS, ENTPD5 (1 ng/μL final concentration) and UMPK (3.5 ng/μL) were diluted in HTS buffer (250 mM NaCl, 25 mM Tris-HCl pH 7.7, 5 mM MgCl2, 5 mM DTT, 0.1 mg/mL BSA, and 0.01% Triton X-100). An ENTPD5 null mix was made as above without ENTPD5 to provide maximal signal mimicking 100% inhibition. Substrate mix solution consisted of ATP (625 μM) and UDP (150 μM) in HTS buffer. Developer solution consisted of Luciferase (50 ng/μL) and D-luciferin (1.6 mM) in HTS buffer. All solutions were stored at 4°C, and equilibrated to room temperature prior to screening. All steps of ENTPD5 HTS were performed at room temperature in duplicate 384-well plates. For each run, 40 μL of enzyme solution (or ENTPD5 null mix) was added to each well of a 384 well plate. 0.1 μL of 10 mM compound (in 100% DMSO) from a 25,000 subset of the Chembridge DiverSet library or DMSO alone were added to wells by pin tool (V&P Scientific). Following a 10-minute incubation, the reaction was initiated with 10 μL of substrate mix (final concentrations: 40 ng/50 μL ENTPD5, 140 ng/50 μL UMPK, 125 μM ATP, 30 μM UDP, 20 μM test compound). Assay plates were shaken at 1500 rpm for 30 seconds and then incubated for 1h. Following incubation, 10 μL of developer solution was added to each well (final concentrations: 500 ng/60 μL luciferase, 266 μM D-luciferin). The plate was shaken for 30 seconds and incubated for 30 minutes. Luminescence readings were performed on a Tecan Infinite […] with automatic attenuation settings and 100 ms integration time. Hits and hit analogs were (re)purchased from Chembridge for SAR studies. Compounds were assayed at 5 μM, 10 μM, 20 μM, and 40 μM using the assay described above. To discover ENTPD5 inhibitors, a coupled enzyme assay was developed for high-throughput screening. The ENTPD5 reaction (UDP ➔ UMP + Pi) was coupled with uridine monophosphate kinase's (UMPK) reaction with UMP (UMP + ATP ➔ UDP + ADP) to create a futile catalytic cycle consuming ATP (Fig 3A). After one hour, the residual ATP was measured with firefly luciferase. UMPK concentrations were chosen to ensure ENTPD5, not UMPK, was rate-limiting. The ATP concentration was chosen to maximize signal with no ENTPD5 present, and the reaction time was optimized to remain in the linear range of the assay. Initial UDP concentration was chosen to allow for multiple turnover events on a single molecule in the cycle. Due to the availability of higher yields of the bacterially produced enzyme, B.ENTPD5 was used for HTS and subsequent structure activity relationship studies. 21,000 compounds were screened in duplicate at 20 μM. The average Z' value of the 132-plate screen was 0.73, indicating a robust assay. Five compounds producing >25% reproducible inhibition of ENTPD5 activity were selected for further analysis (0.02% hit rate) (Fig 3B and 3C).

For assay [2], the system named is O-glycan levels in DU145 cells. Put plainly: Western blot for total O-glycosylation, DU145. In kind it is cell-based. The following applies: DU145, 10 μM, 24h, immunoblot. The procedure: (§1) LNCaP, DU145, PC3, and RWPE-1 cells were treated with 10 μM compound or DMSO control. 24h post-treatment, cells were washed with ice cold PBS, scraped, pelleted and stored at -80°C until use. Frozen cell pellets were lysed with lysis buffer consisting of 20 mM HEPES pH. 7.4, 150 mM NaCl, 1% Triton X-100, 1 mM EGTA, 1 mM EDTA, 10 mM sodium pyrophosphate, 100 mM NaF, 5 mM iodoacetic acid, 20 nM okadaic acid, 0.2 mM phenylmethylsulfonyl flouride (PMSF), and complete protease inhibitor cocktail tablets (Roche Diagnostics). Samples containing 50 μg of protein were suspended in SDS loading buffer, separated on 4–12% SDS polyacrylamide gels (GenScript #M41215) and electrotransferred to PVDF membranes (Millipore Immobilon-FL #IPFL00010). Precision Plus Protein Standards all blue (Bio-Rad 161–0373) were included as molecular weight markers. Immunoblotting was performed using standard methods, with TBS-T and TBS-T with 5% BSA as the wash and blocking/primary antibody dilution solutions, respectively. Total protein was measured with Ponceau-S staining prior to probing with antibodies. Membranes were incubated overnight at 4°C with primary antibodies diluted 1:1000 unless noted otherwise. […] Western blot quantification was normalized to total protein levels and analyzed in ImageStudio (LI-COR).
In general terms: A western blot detects proteins with antibodies after separation by electrophoresis.

The test system of another assay is LNCaP cells. Nature of the assay: Growth inhibition assay, LNCaP. The class given is cell-based. The following applies: Homo sapiens, 48 h, 48h treatment, cell count normalized to DMSO. The procedure: LNCaP (ATCC CFL-1740), DU-145 (ATCC HTB-81), and PC3 (ATCC CRL-1435) cell lines were cultivated in a humid atmosphere (5% CO2, 37°C) using RPMI 1640 with L-glutamine (10-040-CV Corning) media supplemented with 10% FBS (SH30910.03 Hyclone) and 1x penicillin-streptomycin solution (Invitrogen). RWPE-1 (ATCC CRL-11609) was cultivated in a humid atmosphere (5% CO2, 37°C) using Keratinocyte Serum Free Medium (K-SFM Kit 17005–042 GIBCO) supplemented with bovine pituitary extract, epidermal growth factor (provided with K-SFM Kit), and 1x penicillin-streptomycin solution (Invitrogen). All cell lines were analyzed by STR (Short Tandem Repeat) and confirmed to match to corresponding STR profile data from the Global Bioresource Center ATCC or ExPASy Cellosaurus database. All cell lines were verified to be mycoplasma free.
5,000 cells were plated on day 0 in a 96-well plate. On day 1, before treatment, each well was imaged and direct cell counting was performed using a Celigo S (Nexcelom) imager and automatic cell counting software provided with the instrument. Compounds were added to final concentrations of 0.15 μM- 20 μM. 48 hours after treatment, wells were re-imaged and counted using the pre-treatment counting procedure. Growth was reported as the fold increase over the baseline measurement and normalized to DMSO controls. Experiments were performed in triplicate, in three separate experiments. […]

Assay [3] deals with O-glycan levels in LNCaP cells. Put plainly: Western blot for total O-glycosylation, LNCaP. The class given is cell-based. The following applies: 10 μM, 24h, immunoblot. The method, then:
as §1

Where [4] appears, read: substrate UDP, purified I.ENTPD5, Michaelis-Menten.

Consider `O=S(=O)(Nc1ccc(O)c(-c2c(O)ccc3ccccc23)c1)c1ccc(Cl)cc1` [Compound 2a], for which the “inhibition of I.ENTPD5 (hit validation)” value at I.ENTPD5 (MG assay) is “dose-dependent inhibition”. In addition, in assay [1], the inhibition at 20 µM stood at 35% and the IC50 stood at 6.7 ± 0.7 µM.
In the case of `CC(C)(C)c1ccc(S(=O)(=O)Nc2ccc(O)c(-c3c(O)ccc4ccccc34)c2)cc1` [Compound 2f], the IC50 on I.ENTPD5 (MG assay, expanded concentration range, 100 μM UDP) is 1.54 µM. Also, the O-glycan level entry in assay [2] and in assay [3] was “inability of compound 2f to reduce O-glycan levels” throughout. Further, in the assay on LNCaP cells, the EC50 was > 10 µM.
Regarding `Cc1cc(C)c(C)c(S(=O)(=O)Nc2ccc(O)c(-c3c(O)ccc4ccccc34)c2)c1C` [Compound 2b], the “inhibition of I.ENTPD5 (hit validation)” value on I.ENTPD5 (MG assay) is “dose-dependent inhibition”. Moreover, in assay [1], the inhibition at 20 µM came to 48% and it took 3.7 ± 0.4 µM to reach half-maximal inhibition (IC50).
Consider `O=S(=O)(Nc1ccc(O)c(-c2c(O)ccc3ccccc23)c1)c1ccc(Br)cc1` [Compound 2g], for which the IC50 in assay [1] was 8.3 ± 1 µM.
On the same count and under the same terms, next, `Cc1ccc(S(=O)(=O)Nc2cc(-c3c(O)ccc4ccccc34)c(O)c3ccccc23)cc1` [Compound 2h]: > 100 µM.
Consider `O=c1ccn([C@@H]2O[C@H](COP(=O)(O)OP(=O)(O)O)[C@@H](O)[C@H]2O)c(=O)[nH]1` [UDP, reference compound], for which, at I.ENTPD5 (setting [4]), the Km was found to be 480 ± 111 µM and the kcat was determined as 783 ± 68 s⁻¹.
`CCc1ccc(S(=O)(=O)Nc2ccc(O)c(-c3c(O)ccc4ccccc34)c2)cc1` [Compound 2e] returned an IC50 in assay [1] of 4.3 ± 2.2 µM.
Turning to `O=S(=O)(Nc1cc(-c2c(O)ccc3ccccc23)c(O)c2ccccc12)c1ccc(Cl)cc1` [Compound 2i], the IC50 in assay [1] was > 100 µM.
On to `O=C1NC(c2ccccc2OCc2ccccc2)Nc2ccccc21` (stereo not drawn) [Compound 4], for which the “inhibition of I.ENTPD5 (hit validation)” value against I.ENTPD5 (MG assay) is “dose-dependent inhibition”. Moreover, the inhibition at 20 µM in assay [1] amounted to 28%.
As to `Cc1ccc(S(=O)(=O)Nc2ccc(O)c(-c3c(O)ccc4ccccc34)c2)cc1` [Compound 2d], 7.1 ± 1.6 µM corresponded to half-maximal inhibition in assay [1] (IC50).
Consider `CCC(=O)N1c2ccccc2C(N(C(=O)c2ccccc2)c2ccccc2)CC1C` (stereo not drawn) [Compound 3], for which, in assay [1], the inhibition at 20 µM was 47%.
Consider `O=S(=O)(Nc1ccc(O)c(-c2c(O)ccc3ccccc23)c1)c1ccccc1` [Compound 2c], for which, in assay [1], the IC50 came to 6.8 ± 1 µM.
